Target: human recombinant NLRP3 protein
Assay: Binding of NSIs to recombinant NLRP3 protein by microscale thermophoresis (Monolith NT.Automated)
Settings: MST; His-NLRP3 labeled with RED-tris-NTA dye, 40 min incubation in PBS-T; duplicate reads
Description: Monolith NT. Automated instrument was used to measure the Kd value. A range of concentrations of NSIs were incubated and His-NLRP3 pre-labeled with RED-tris-NTA dye kit (SKU: MO-L018) for 40 min in PBS-T assay buffer (1×PBS with 0.05% Tween® 20). The samples were loaded into NanoTemper® glass capillaries and series of ligand-induced changes in thermophoresis curves were gained using an Excitation power of 80% and a MST power of high. Kd values were calculated using the mass action equation with NanoTemper software from duplicate reads of an experiment.
Table 1 provides exemplary binding affinities of NSIs to human recombinant NLRP3 protein.

SMILES: COc1ccc(Cl)cc1Cn1cc(C(=O)N2CC(F)(F)C2)nn1 [YM-III-12]
- Kd: 0.98 µM

SMILES: COc1ccc(Cl)cc1Cn1cc(-c2ccc(C(=O)N3CCC3)cc2)nn1 [YM-III-11]
- Kd: 3 µM

— US20250243172A1, “NLRP3 INFLAMMASOME INHIBITORS AND COMPOSITIONS AND USES THEREOF” (VIRGINIA COMMONWEALTH UNIVERSITY, priority 2022, published 2025)
